# Source: publication PMC7008171 (Frontiers in Pharmacology, 2020)
# Values joined by “and” are separate entries in the source; they are usually repeats but may differ in a detail not shown here. Equal entries are not always repeated. Marks after values point to notes of the source that are not given here.
# Experiments:
# [1] = taken orally; ref Huang et al., 1993; de Leon et al., 2010; Shimizu et al., 2017; cited from earlier work
# [2] = Pharmacokinetic study in Beagle dogs (i.v., i.g., supralingual, sublingual; crossover, single dose);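 further: Single-dose crossover across four periods with one-week washout, plasma drug levels quantified by LC-MS/MS in positive ESI mode, lower quantification limit 0.2 ng/mL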; settings: three-compartmental fit of i.v. profile in Beagle dogs
# Procedure: (§1) The dogs were kept still for 2 min. A dose of 1 mg/body was administrated.
# (§2) Four healthy Beagle dogs (male:female, 1:1) weighting 9.04 ± 1.88 kg (Certificate No. 20150005001131), purchased from Shanghai Jambo Biological Technology Co., Ltd (Shanghai, China), were used in this study. The study protocol was reviewed and approved by the Animal Management and Ethic Committee of the China State Institute of Pharmaceutical Industry. Dogs were housed individually in stainless steel cages. Tap water was given ad-libitum and food was provided once daily. Dogs were fasted for 12 h before drug administration. Blank blood samples were withdrawn prior to the administration of the drugs. Subsequently, blood samples were taken from forelimb vein at 0.167, 0.333, 0.5, 0.75, 1.0, 1.5, 2.0, 3.0, 4.0, 6.0, 8.0, 12, 24, and 32 h into heparin sodium-containing centrifuge tubes which were then centrifuged for 5 min at 3,000 rpm. The supernatant was collected and stored at -20 °C in the refrigerator until further analysis.
# (§3) The main pharmacokinetic parameters of maximum plasma concentration (Cmax), peak time (Tmax), area under the concentration-time curve from 0 h to the time of last measurable concentration (AUC0-t), and AUC from 0 to infinity (AUC0-∞), mean residue time (MRT), apparent volume of distribution (Vd), elimination half-life (t1/2), and in vivo clearance (CL) were calculated by non-compartmental approach using the software of DAS 2.0 ([Cheng et al., 2016]).
# (§4) Calibration curves were constructed in the concentration range of 0.2–200 ng/ml with a lower limit of quantification (LLOQ) of 0.2 ng/ml. […] The HPLC system (Shimadzu Co. Ltd, Kyoto, Japan) equipped with a triple quadruple mass spectrometer (Shimadzu Co. Ltd, Kyoto, Japan) operating with ESI in the positive mode was used for the quantification of the analytes. Mobile phases consisted of methanol and water (35:65, v/v), both containing 0.05% formic acid and 5 mM ammonium formate. The flow rate was set at 0.3 ml/min. Ten μl of the aliquot was injected into the Inspire C18 column (2.1 mm×50 mm, 3 μm, Dikma Technologies Inc, Beijing, China) at a column oven of 40 °C. […] Direct protein precipitation using acetonitrile was used for the extraction of analytes from dog plasma.
# in vivo = settings: both, Beagle, dog, plasma, 1 mg
# Procedure: as §1, §2, §3, §4
# [3] = ref PMDA label, 2018; cited from earlier work
# [4] = design: method as in Mannens et al., 1994; settings: dog plasma; ref Mannens et al., 1994; cited from earlier work
# [5] = sublingual tablets (Intermezzo), OCCAT model; ref Xia et al., 2015; cited from earlier work
compound,measurement,setting,value
Cc1nc2n(c(=O)c1CCN1CCC(c3noc4cc(F)ccc34)CC1)CCCC2 [risperidone],Oral bioavailability,[1],about 70%
same,K12,[2],16.352 ^e h^-1
same,K13,[2],0.4625 ^e h^-1
same,K21,[2],9.007 ^e h^-1
same,K31,[2],0.4103 ^e h^-1
same,V2 (volume of distribution of the first peripheral compartment),[2],0.5699 ^e L/kg
same,V3 (volume of distribution of the second peripheral compartment),[2],0.3538 ^e L/kg
same,AUC(0-inf),in vivo,102 ± 43.3 ng·h/mL
same,AUC(0-t),in vivo,98.9 ± 40.9 ng·h/mL
same,Cmax,in vivo,52.6 ± 10.6 ng/mL
same,MRT inf,in vivo,1.93 ± 0.52 h
same,MRT last,in vivo,1.78 ± 0.41 h
same,Tmax,in vivo,0.67 ± 0.38 h
same,Vd,in vivo,17.8 ± 3.06 L
same,clearance,in vivo,184 mL/min
same,half-life,in vivo,1.21 ± 0.4 h
same,AUC(0-inf),in vivo; iv,179 ± 115 ng·h/mL
same,AUC(0-t),in vivo; iv,177 ± 113 ng·h/mL
same,Cmax,in vivo; iv,215 ± 56.4 ng/mL
same,MRT inf,in vivo; iv,1.4 ± 0.89 h
same,MRT last,in vivo; iv,1.3 ± 0.8 h
same,Tmax,in vivo; iv,0.03 h
same,Vd,in vivo; iv,12.8 L and 0.314 L/kg
same,clearance,in vivo; iv,128 mL/min and 9.84 mL/min/kg
same,half-life,in vivo; iv,1.37 ± 0.82 h
same,AUC(0-inf),in vivo; other: supralingual,102 ± 57.4 ng·h/mL
same,AUC(0-t),in vivo; other: supralingual,97.3 ± 54.4 ng·h/mL
same,Cmax,in vivo; other: supralingual,59.4 ± 7.32 ng/mL
same,MRT inf,in vivo; other: supralingual,1.73 ± 0.82 h
same,MRT last,in vivo; other: supralingual,1.5 ± 0.71 h
same,Tmax,in vivo; other: supralingual,0.62 ± 0.58 h
same,Vd,in vivo; other: supralingual,17.2 ± 7.7 L
same,clearance,in vivo; other: supralingual,199 mL/min
same,half-life,in vivo; other: supralingual,1.13 ± 0.5 h
same,AUC(0-inf),in vivo; po,91.3 ± 48.6 ng·h/mL
same,AUC(0-t),in vivo; po,90 ± 48.7 ng·h/mL
same,Cmax,in vivo; po,45.9 ± 7.6 ng/mL
same,MRT inf,in vivo; po,1.79 ± 0.74 h
same,MRT last,in vivo; po,1.71 ± 0.75 h
same,Tmax,in vivo; po,0.71 ± 0.53 h
same,half-life,in vivo; po,0.92 ± 0.41 h
same,Solubility (pH 6.8),[3],0.9 ^d mg/ml
same,fu (plasma unbound fraction),[4],0.083 ^c
Cc1ccc(-c2nc3ccc(C)cn3c2CC(=O)N(C)C)cc1 [zolpidem],Estimated absorption via the oral mucosa,[5],about 18%
